Experiment: In vivo delivery experiment of lipid nucleic acid mixture (Example 13)
Parameters: species or system C57 mice
Conditions: oral administration, 6 hours; for delivery effect into mouse blood and tissues (heart, spleen, kidney or intestine) compared with POPC: FIG. 117a-146b, 100 μg lipid : 1 nmol sRNA; for delivery of small RNA (PGY-sRNA-26) into kidney / delivery of small RNA (PGY-sRNA-26) into spleen / delivery of small RNA (PGY-sRNA-26) into blood / delivery of small RNA (PGY-sRNA-26) into heart / delivery of small RNA (PGY-sRNA-26) into intestine: 100 μg lipid : 1 nmol sRNA per mouse, 90° C. 15 min
Experimental: 1. Experiment animals: C57 mice, male, approximately 6 weeks old, 20-24g. Mice were raised in the SPF room of the Animal Center of the Institute of Basic Medical Sciences of Chinese Academy of Medical Sciences. The mice were fasted for 12 hours before intragastric administration.
2. Preparation of the mixture of lipid and small RNA: the prepration was conducted on the basis of a dose of 100 μg lipid: lnmol single stranded small RNA PGY-sRNA-26 per mouse as follows: lnmol of each sRNA was dissolved with 500 μl DEPC water in a glass tube, 100 μg corresponding lipid solution No.33, No.35,No.37, No.42, No.43, No.44, No.45, No.46, No.47, No.48, No.49, No.50, No.51, No.52, No.53, No.54, No.55, No.56, No.57, No.58, No.59, No.60, No.61, No.62, No.65, No.66, No.67, No.68, No.69 or No.70 (lipid chloroform solution with a concentration as shown in Table 1-1) was added, pipetted to mix thoroughly. The solution was heated in water bath at 90° C. for 15 min, naturally cooled down, and was administered via gavage.
1) Tissue sampling and extraction of RNA: 6 hours after gavage in mice, 500 μl of blood was taken from the eyeball, and was added 1.5 ml Trizol Reagent LS to thoroughly mix and lyse. Tissue sampling: the mouse was sarcrified by breaking its neck, and the thoracic and abdominal cavities of the mouse was exposed to remove the heart/whole spleen/two kidneys/intestine (5 cm of upper end), which was immediately added 2 ml Trizol Reagent (purchased from Invitrogen) and homogenized until complete lysis with a tissue homogenizer.
2) Reverse transcription of sRNA to cDNA: Reverse Transcription Kit (High-Capacity cDNA Reverse Transcription Kits, Applied Biosystems, cat. no. 4368813), was used to reverse transcribe the total RNA to cDNA, and the reverse system was as follows: template RNA (150 ng/μL) 10 μL, 10× RT buffer, 2.0 μL, 25× dNTP Mix (100 mM) 0.8 μL, random primers 2.0 μL, the Multi Scribe™ reverse Transcriptase 1.0 RNase inhibitor 1.0 μL, nuclease-free H2O 3.2 μL. After a brief centrifugation, the reaction was loaded in a PCR reactor. The reaction conditions were as follows: (1) 25° C., 10 min; (2) 37° C., 120 min; (3) 85° C., 5 min; (4) 4° C., termination of the reaction. After the reaction, 20 μL RNase-free ddH2O was added to make up the final volume to 40 μL.
LightCycler 480 fluorescence quantitative PCR instrument was used, and the PCR reaction conditions were: 95° C. , 5 min for pre-denaturation, followed by the PCR amplification cycle: (1) 95° C., 10 s; (2) 55° C., 10 s; (3) 72° C., 20 s; a total of 40 cycles; 40° C. for 10 s in the end to cool down. The forward primer and reverse primer of the amplification reaction were designed and synthesized by Beijing Qing Ke New Industrial Biotechnology Co., Ltd. (U6 F primer: GTGCAGGGTCCGAGGT (SEQ ID NO: 24), PGY-sRNA-26F primer: […] (SEQ ID NO: 34), reverse primer miR all rev: GTGCACGCTCCGAGGT (SEQ ID NO: 26)).
3) The relative expression amount was calculated by the 2-ΔCt method.
The data were represented in the form of mean±SEM. The parameter difference between the experimental group and the control group was evaluated by unpaired t test. The data were statistically analyzed by GraphPad Prism software, and P<0.05 was considered statistically significant.

| Compound | delivery effect into mouse blood and tissues (heart, spleen, kidney or intestine) compared with POPC | delivery of small RNA (PGY-sRNA-26) into kidney | delivery of small RNA (PGY-sRNA-26) into spleen | delivery of small RNA (PGY-sRNA-26) into blood | delivery of small RNA (PGY-sRNA-26) into heart | delivery of small RNA (PGY-sRNA-26) into intestine |
| --- | --- | --- | --- | --- | --- | --- |
| CCCCCC/C=C\CCCCCCCCCC(=O)OC[C@H](COP(=O)(O)OCC[N+](C)(C)C)OC(=O)CCCCCCC/C=C\CCCCCC (stereo in doubt) [No. 69, 1-vaccenoyl-2-palmitoleoyl-sn-glycero-3-phosphocholine] | significantly better than or equivalent to that of POPC | delivers small RNA | delivers small RNA |  |  |  |
| CCCCCCCCCCCCCCCCCC(=O)OCC(COC(=O)CCCCCCCCCCCCCCCCC)OC(=O)CCCCCCCCCCCCCCC [No. 33, 1,3-Stearin-2-Palmitin 1,3-Octadecanoyl-2-Palmitoyl-glycerol] | significantly better than or equivalent to that of POPC | delivers small RNA |  | delivers small RNA | delivers small RNA |  |
| CCCCC/C=C\C/C=C\CCCCCCCC(=O)OC[C@H](CO)OC(=O)CCCCCCC/C=C\C/C=C\CCCCC [No. 35, (2S)-1-hydroxy-3-[(9Z,12Z)-octadeca-9,12-dienoyloxy] propan-2-yl (9Z,12Z)-octadeca-9,12-dienoate] | significantly better than or equivalent to that of POPC | delivers small RNA |  |  | delivers small RNA |  |
| CC/C=C\C/C=C\C/C=C\CCCCCCCC(=O)OCC(O)COC(=O)CCCCCCC/C=C\C/C=C\CCCCC (stereo not shown) [No. 45, 1-Linolein-3-Linolenin] | significantly better than or equivalent to that of POPC | delivers small RNA | delivers small RNA |  | delivers small RNA | delivers small RNA |
| CCCCCCCCCCCCCCCC(=O)N[C@@H](CO)[C@H](O)CCCCCCCCCCCCC [No. 53, C16 dihydroceramide (d16:0/16:0)] | significantly better than or equivalent to that of POPC | delivers small RNA |  | delivers small RNA | delivers small RNA |  |
| CCCCCCCCCCCCCCCCCC(=O)N[C@@H](CO)[C@H](O)CCCCCCCCCCCCCCCCC [No. 54, C18 dihydroceramide (d20:0/18:0)] | significantly better than or equivalent to that of POPC | delivers small RNA |  | delivers small RNA |  |  |
| CCCCCCCCCCCCCCCCCCC[C@@H](O)[C@H](CO)NC(=O)CCCCCCCCCCCCCCCCC [No. 55, C18 dihydroceramide (d22:0/18:0)] | significantly better than or equivalent to that of POPC | delivers small RNA |  | delivers small RNA | delivers small RNA |  |
| CC/C=C\C/C=C\C/C=C\CCCCCCCC(=O)OCC(COC(=O)CCCCCCCCCCCCCCC)OC(=O)CCCCCCC/C=C\C/C=C\CCCCC (stereo not shown) [No. 56, Triglyceride (16:0/18:2/ 18:3)] | significantly better than or equivalent to that of POPC |  |  | delivers small RNA | delivers small RNA |  |
| CC/C=C\C/C=C\C/C=C\CCCCCCCC(=O)OCC(COC(=O)CCCCCCC/C=C\CCCCCCCC)OC(=O)CCCCCCC/C=C\C/C=C\CCCCC (stereo not shown) [No. 57, Triglyceride (18:1/18:2/ 18:3)] | significantly better than or equivalent to that of POPC | delivers small RNA |  |  |  |  |
| CCCCCC/C=C\CCCCCCCC(=O)OC[C@H](COP(=O)(O)OCC)OC(=O)CCCCCCC/C=C\CCCCCC [No. 58, 1,2-dipalmitoleoyl-sn-glycero-3-phosphoethanol] | significantly better than or equivalent to that of POPC |  |  |  | delivers small RNA | delivers small RNA |
| CCCCCC/C=C\CCCCCCCC(=O)OC[C@H](COP(=O)(O)OCCN(C)C)OC(=O)CCCCCCCCCCCCC [No. 59, 1-palmitoleoyl-2-myristoyl-sn-glycero-3-phospho-ethanolamine-N,N-dimethyl] | significantly better than or equivalent to that of POPC |  |  |  |  | delivers small RNA |
| CCCCCCCC/C=C\CCCCCCCC(=O)OC[C@H](COP(=O)(O)OCCN(C)C)OC(=O)CCCCCCCCCCCCC [No. 61, 1-oleoyl-2-myristoyl-sn-glycero-3-phospho-ethanolamine-N,N-dimethyl] | significantly better than or equivalent to that of POPC | delivers small RNA |  |  | delivers small RNA | delivers small RNA |
| CCCC/C=C\CCCCCCCC(=O)O[C@H](COC(=O)CCCCCCCCCCCCCCCCCCC)COP(=O)(O)OCC[N+](C)(C)C [No. 65, 1-eicosanoyl-2-myristoleoyl-sn-glycero-3-phosphocholine] | significantly better than or equivalent to that of POPC | delivers small RNA |  |  |  | delivers small RNA |
| CC/C=C\C/C=C\C/C=C\CCCCCCCC(=O)OCC(COC(=O)CCCCCCCCCCCCCCCCC)OC(=O)CCCCCCC/C=C\C/C=C\CCCCC (stereo not shown) [No. 66, Triglyceride (18:0/18:2/ 18:3)] | significantly better than or equivalent to that of POPC |  |  | delivers small RNA | delivers small RNA | delivers small RNA |
| CC/C=C\C/C=C\C/C=C\C/C=C\C/C=C\CCCC(=O)OCC(COC(=O)CCCCCCC/C=C\CCCCCCCC)OC(=O)CCCCCCC/C=C\C/C=C\CCCCC (stereo not shown) [No. 67, Triglyceride (18:1/18:2 /20:5)] | significantly better than or equivalent to that of POPC |  | delivers small RNA |  | delivers small RNA | delivers small RNA |
| CC/C=C\C/C=C\C/C=C\C/C=C\C/C=C\CCCC(=O)OCC(COC(=O)CCCCCCC/C=C\C/C=C\CCCCC)OC(=O)CCCCCCC/C=C\C/C=C\CCCCC (stereo not shown) [No. 68, Triglyceride (20:5/18:2/ 18:2)] | significantly better than or equivalent to that of POPC |  | delivers small RNA |  | delivers small RNA | delivers small RNA |
| Dilinolenin [No. 70] | significantly better than or equivalent to that of POPC |  | delivers small RNA |  | delivers small RNA |  |
